Test results as given in US20190105367A1, “ANTIMICROBIAL 4-OXOQUINOLIZINES” (Emergent Product Development Gaithersburg Inc., priority 2011, published 2019).
In brackets after ≈: the same amount, converted by molar mass. Read-outs that look alike come from different tables or passages of the source.

Columns and labels:
[1] = tested on: strains of A. baumannii and one strain of Acinetobacter sp.; assay: MIC with sub-inhibitory concentrations (0.25x MIC) of polymyxin B, panel of Acinetobacter strains (Example 4); type: cell-based
A. baumannii ATCC 19606 [2] = assay: MIC without and with sub-inhibitory polymyxin B (Example 4); type: cell-based, Acinetobacter baumannii; conditions: for MIC without PB/MIC + PB: A. baumannii ATCC 19606; for MIC: Acinetobacter baumannii
A. baumannii ATCC 19606 [3] = assay: Preliminary MBC without and with sub-inhibitory polymyxin B (Example 4); type: cell-based, Acinetobacter baumannii; conditions: Acinetobacter baumannii
A. baumannii J2 = assay: MIC without and with sub-inhibitory polymyxin B (Example 4); type: cell-based, Acinetobacter baumannii; conditions: for MIC without PB/MIC + PB: A. baumannii J2; for MIC: Acinetobacter baumannii
[4] = tested on: Acinetobacter sp. (H064200250); assay: as above; type: cell-based
A. baumannii A387 [5] = assay: as above; type: cell-based, Acinetobacter baumannii; conditions: for MIC without PB/MIC + PB: A. baumannii A387
A. baumannii A387 [6] = assay: Preliminary MBC without and with sub-inhibitory polymyxin B (Example 4); type: cell-based, Acinetobacter baumannii; conditions: Acinetobacter baumannii, A387, A. baumannii A387, +0.06 μg/ml PB, 2nd experiment, read-out: MBC
A. baumannii A390 [7] = assay: MIC without and with sub-inhibitory polymyxin B (Example 4); type: cell-based, Acinetobacter baumannii; conditions: +0.06 μg/ml PB, 2nd experiment
A. baumannii A14 [8] = assay: Preliminary MBC without and with sub-inhibitory polymyxin B (Example 4); type: cell-based, Acinetobacter baumannii; conditions: A. baumannii A14, +0.06 μg/ml PB, 2nd experiment
Protocol: (§1) The plates were incubated for 18-20 hours at 37° C. The MBC was read as the lowest concentration at which colony growth was ca. 90% less than the positive control (i.e. usually where single colonies or no colonies were observed).

A. baumannii A390 [9] = assay: as above; type: cell-based, Acinetobacter baumannii; conditions: Acinetobacter baumannii, A390, A. baumannii A390, +0.06 μg/ml PB, 2nd experiment, read-out: MBC
Protocol: as §1

A. baumannii A473 [10] = assay: as above; type: cell-based, Acinetobacter baumannii; conditions: Acinetobacter baumannii, A473, A. baumannii A473, +0.06 μg/ml PB, 2nd experiment, read-out: MBC
Protocol: as §1

A. baumannii NCTC 13301 [11] = assay: as above; type: cell-based, Acinetobacter baumannii; conditions: Acinetobacter baumannii
Protocol: as §1

A. baumannii A401 = assay: MIC without and with sub-inhibitory polymyxin B (Example 4); type: cell-based, Acinetobacter baumannii; conditions: A baumannii A 401; ratio, PB 0.06 μg/ml; 1st experiment
A. baumannii A472 [12] = assay: as above; type: cell-based, Acinetobacter baumannii; conditions: for MIC: Acinetobacter baumannii
A. baumannii A472 [13] = assay: Preliminary MBC without and with sub-inhibitory polymyxin B (Example 4); type: cell-based, Acinetobacter baumannii; conditions: Acinetobacter baumannii, preliminary MBC
A. baumannii A473 [14] = assay: MIC without and with sub-inhibitory polymyxin B (Example 4); type: cell-based, Acinetobacter baumannii
A. baumannii A489 = assay: as above; type: cell-based, Acinetobacter baumannii; conditions: for MIC without PB/MIC + PB: A. baumannii A489; for MIC: Acinetobacter baumannii
A. baumannii NCTC 13301 [15] = assay: as above; type: cell-based, Acinetobacter baumannii
A. baumannii NCTC 13301 [16] = assay: as above; type: cell-based, Acinetobacter baumannii; remark: listed apart in the source
A. baumannii A14 [17] = assay: as above; type: cell-based, Acinetobacter baumannii; conditions: 1st experiment
A. baumannii A14 [18] = assay: as above; type: cell-based, Acinetobacter baumannii; conditions: A. baumannii A14; +0.06 μg/ml PB; 2nd experiment
A. baumannii A14 [19] = assay: Preliminary MBC without and with sub-inhibitory polymyxin B (Example 4); type: cell-based, Acinetobacter baumannii; conditions: A. baumannii A14; +0.06 μg/ml polymyxin B; preliminary MBC; 1st experiment
[20] = ratio, PB 0.06 μg/ml, 1st experiment

**Q.** Which results are given for `NCC[C@H](O)C(=O)N[C@@H]1C[C@H](N)[C@@H](O[C@H]2O[C@H](CN)[C@@H](O)[C@H](O)[C@H]2O)[C@H](O)[C@H]1O[C@H]1O[C@H](CO)[C@@H](O)[C@H](N)[C@H]1O` [Amikacin, reference compound]?
**A.** Change of activity (MIC) in presence of polymyxin B compared to without polymyxin B [1]: not significantly affected; Range ratios MIC without PB/MIC with PB Oct. 14, 2008 n = 11 ([1]; 2nd experiment): 1-16; MIC without PB/MIC + PB (A. baumannii ATCC 19606 [2]; +0.06 μg/ml PB, 2nd experiment): 2; MIC without PB/MIC + PB (A. baumannii ATCC 19606 [2]; [20]): 2; MIC (A. baumannii ATCC 19606 [2]; ATCC19606, A. baumannii ATCC 19606, +0.06 μg/ml PB, 2nd experiment, read-out: MIC): 8 µg/mL (≈ 13.7 µM); MIC (A. baumannii ATCC 19606 [2]; ATCC19606, read-out: MIC +0.06 μg/ml PB, A. baumannii ATCC 19606, +0.06 μg/ml polymyxin B, 1st experiment): 8 µg/mL; MBC (A. baumannii ATCC 19606 [3]; ATCC19606, A. baumannii ATCC 19606, +0.06 μg/ml PB, 2nd experiment, read-out: MBC): 8 µg/mL (≈ 13.7 µM); MBC (A. baumannii ATCC 19606 [3]; ATCC19606, read-out: MBC +0.06 μg/ml PB, A. baumannii ATCC 19606, +0.06 μg/ml polymyxin B, 1st experiment): 8 µg/mL; MIC without PB/MIC + PB (A. baumannii J2; +[…] PB, 2nd experiment): 16; MIC without PB/MIC + PB (A. baumannii J2; ratio, PB […], 1st experiment): 8; MIC (A. baumannii J2; J2, A. baumannii J2, +[…] PB, 2nd experiment, read-out: MIC): 0.5 µg/mL (≈ 0.854 µM); MIC (A. baumannii J2; J2, read-out: MIC +[…] PB, A. baumannii J2, +[…] polymyxin B, 1st experiment): 4 µg/mL (≈ 6.83 µM); MIC without PB/MIC + PB ([4]; Acinetobacter spp. H064200250 (OXA51), +[…] PB, 2nd experiment): 8; MIC without PB/MIC + PB ([4]; Acinetobacter spp. H064200250, ratio, PB […], 1st experiment): 1; MIC ([4]; Acinetobacter, Acinetobacter spp. H064200250 (OXA51), +[…] PB, 2nd experiment, read-out: MIC): 1 µg/mL (≈ 1.71 µM); MIC without PB/MIC + PB (A. baumannii A387 [5]; +0.06 μg/ml PB, 2nd experiment): ≥1; MIC without PB/MIC + PB (A. baumannii A387 [5]; [20]): ≥1; MIC (A. baumannii A387 [5]; Acinetobacter baumannii, A387): 128 µg/mL (≈ 219 µM); MBC (A. baumannii A387 [6]): 128 µg/mL (≈ 219 µM); MIC without PB/MIC + PB (A. baumannii A390 [7]; A. baumannii A390): ≥2; MIC (A. baumannii A390 [7]; Acinetobacter baumannii, A390, A. baumannii A390, read-out: MIC): 64 µg/mL (≈ 109 µM); MBC (A. baumannii A14 [8]): 8 µg/mL (≈ 13.7 µM); MBC (A. baumannii A390 [9]): 64 µg/mL (≈ 109 µM); MBC (A. baumannii A473 [10]): 128 µg/mL (≈ 219 µM); MBC (A. baumannii NCTC 13301 [11]; NCTC13301, A. baumannii NCTC 13301, +[…] PB, preliminary MBC, 2nd experiment, read-out: MBC): 64 µg/mL (≈ 109 µM); MBC (A. baumannii NCTC 13301 [11]; NCTC13301, read-out: MBC +[…] PB): > 128 µg/mL; MIC without PB/MIC + PB (A. baumannii A401): ≥1; MIC without PB/MIC + PB (A. baumannii A472 [12]; A. baumannii A472, ratio, PB […], 1st experiment): ≥8; MIC (A. baumannii A472 [12]; A472, A. baumannii A472, +[…] PB, 2nd experiment, read-out: MIC): 32 µg/mL (≈ 54.6 µM); MIC (A. baumannii A472 [12]; A472, read-out: MIC +[…] PB, A. baumannii A472, +[…] polymyxin B, 1st experiment): 16 µg/mL (≈ 27.3 µM); MBC (A. baumannii A472 [13]; A472, A. baumannii A472, +[…] PB, 2nd experiment, read-out: MBC): 32 µg/mL (≈ 54.6 µM); MBC (A. baumannii A472 [13]; A472, read-out: MBC +[…] PB, A. baumannii A472, +[…] polymyxin B, 1st experiment): 32 µg/mL (≈ 54.6 µM); MIC without PB/MIC + PB (A. baumannii A473 [14]; A. baumannii A473, +0.06 μg/ml PB, 2nd experiment): ≥1; MIC (A. baumannii A473 [14]; Acinetobacter baumannii, A473): 128 µg/mL (≈ 219 µM); MIC without PB/MIC + PB (A. baumannii A489; +[…] PB, 2nd experiment): ≥2; MIC without PB/MIC + PB (A. baumannii A489; ratio, PB […], 1st experiment): ≥1; MIC (A. baumannii A489; A489, A. baumannii A489, +[…] PB, 2nd experiment, read-out: MIC): 64 µg/mL (≈ 109 µM); MIC (A. baumannii A489; A489, read-out: MIC +[…] PB, A. baumannii A489, +[…] polymyxin B, 1st experiment): 128 µg/mL (≈ 219 µM); MIC without PB/MIC + PB (A. baumannii NCTC 13301 [15]; A. baumannii NCTC 13301, ratio, PB […], 1st experiment): ≥1; MIC (A. baumannii NCTC 13301 [15]; Acinetobacter baumannii, NCTC13301, read-out: MIC +[…] PB): > 128 µg/mL; MIC without PB/MIC + PB (A. baumannii NCTC 13301 [16]; A. baumannii NCTC 13301, +[…] PB, 2nd experiment): ≥1; MIC (A. baumannii NCTC 13301 [16]; Acinetobacter baumannii, NCTC13301): 128 µg/mL (≈ 219 µM); MIC +0.06 μg/ml PB (A. baumannii A14 [17]; +0.06 μg/ml polymyxin B): 16 µg/mL; MIC without PB/MIC + PB (A. baumannii A14 [17]; ratio, PB 0.06 μg/ml): 2; MIC (A. baumannii A14 [18]): 8 µg/mL (≈ 13.7 µM); MIC without PB/MIC + PB (A. baumannii A14 [18]): 2; MBC +0.06 μg/ml PB (A. baumannii A14 [19]): 16 µg/mL
